Measurements as given in PubChem BioAssay AID248 (DTP/NCI, 2004).
Values joined by “and” are separate entries in the source; they are usually repeats but may differ in a detail not shown here. Identical values can stand only once. Inconclusive results and toxic doses are left out. Cut-off read from the data, not from the text of the source: active = T/C of 150% or more; inactive = T/C below 125%.

Tested on: L1210 leukemia ip in BDF1 mice, survival T/C
Assay: NCI In Vivo Anticancer Drug Screen. Data for tumor model L1210 Leukemia (intraperitoneal) in B6D2F1 (BDF1) mice
Conditions: higher = longer survival
Outline: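 Each compound was tested against a transplantable tumor grown in mice. The endpoint was survival, with treated animals benchmarked against vehicle controls as a simple ratio.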

Measured: T/C

O=c1[nH]c(=O)n(C2CC(O)C(CO)O2)cc1F (configuration not stated)
inactive: endpoint: mean survival time, dose: 2.3 mg/kg/injection, schedule: Q01DX009 (ip), vehicle: saline 95 % of control and 100 % of control | endpoint: mean survival time, dose: 2.5 mg/kg/injection, schedule: Q01DX009 (ip), vehicle: saline 105 % of control | endpoint: mean survival time, dose: 3.12 mg/kg/injection, schedule: Q#A X Z (ip), vehicle: saline 109 % of control | endpoint: mean survival time, dose: 4.5 mg/kg/injection, schedule: Q01DX009 (ip), vehicle: saline 106 % of control | endpoint: mean survival time, dose: 5.0 mg/kg/injection, schedule: Q01DX009 (ip), vehicle: saline 103 % of control | endpoint: mean survival time, dose: 5.0 mg/kg/injection, schedule: Q01DX009 (oral), vehicle: saline 105 % of control | endpoint: mean survival time, dose: 6.25 mg/kg/injection, schedule: Q01DX Z (ip), vehicle: saline 105 % of control | endpoint: mean survival time, dose: 6.25 mg/kg/injection, schedule: Q#A X Z (ip), vehicle: saline 114 % of control | endpoint: mean survival time, dose: 9.0 mg/kg/injection, schedule: Q01DX009 (ip), vehicle: saline 103 % of control and 110 % of control | endpoint: mean survival time, dose: 10.0 mg/kg/injection, schedule: Q01DX005 (ip), vehicle: water 99 % of control and 102 % of control | endpoint: mean survival time, dose: 10.0 mg/kg/injection, schedule: Q01DX009 (ip), vehicle: saline 112 % of control | endpoint: mean survival time, dose: 10.0 mg/kg/injection, schedule: Q01DX009 (oral), vehicle: saline 98 % of control | endpoint: mean survival time, dose: 11.0 mg/kg/injection, schedule: Q07DX Z (ip), vehicle: saline 106 % of control | endpoint: mean survival time, dose: 12.5 mg/kg/injection, schedule: Q01DX Z (ip), vehicle: saline 111 % of control | endpoint: mean survival time, dose: 18.0 mg/kg/injection, schedule: Q04DX002 (ip), vehicle: saline 106 % of control and 115 % of control | endpoint: mean survival time, dose: 20.0 mg/kg/injection, schedule: Q01DX009 (oral), vehicle: saline 105 % of control | endpoint: mean survival time, dose: 20.0 mg/kg/injection, schedule: Q01DX015 (ip), vehicle: water 111 % of control | endpoint: mean survival time, dose: 20.0 mg/kg/injection, schedule: Q01DX Z (ip), vehicle: saline 105 % of control | endpoint: mean survival time, dose: 22.0 mg/kg/injection, schedule: Q07DX Z (ip), vehicle: saline 102 % of control | endpoint: mean survival time, dose: 25.0 mg/kg/injection, schedule: Q01DX006 (iv), vehicle: saline 110 % of control | endpoint: mean survival time, dose: 25.0 mg/kg/injection, schedule: Q01DX Z (ip), vehicle: saline 111 % of control | endpoint: mean survival time, dose: 25.0 mg/kg/injection, schedule: Q01DX Z (sc), vehicle: saline 111 % of control | endpoint: mean survival time, dose: 25.9 mg/kg/injection, schedule: Q01DX009 (ip), vehicle: saline 115 % of control | endpoint: mean survival time, dose: 29.0 mg/kg/injection, schedule: Q02DX008 (ip), vehicle: water 98 % of control | endpoint: mean survival time, dose: 30.0 mg/kg/injection, schedule: Q01DX015 (ip), vehicle: water 108 % of control | endpoint: mean survival time, dose: 30.0 mg/kg/injection, schedule: Q01DX Z (ip), vehicle: saline 106 % of control | endpoint: mean survival time, dose: 36.0 mg/kg/injection, schedule: Q04DX002 (ip), vehicle: saline 100 % of control and 110 % of control | endpoint: mean survival time, dose: 40.0 mg/kg/injection, schedule: Q01DX Z (ip), vehicle: saline 112 % of control | endpoint: mean survival time, dose: 42.0 mg/kg/injection, schedule: Q02DX008 (ip), vehicle: water 101 % of control | endpoint: mean survival time, dose: 44.0 mg/kg/injection, schedule: Q07DX Z (ip), vehicle: saline 106 % of control | endpoint: mean survival time, dose: 50.0 mg/kg/injection, schedule: Q01DX001 (ip), vehicle: saline 107 % of control | endpoint: mean survival time, dose: 50.0 mg/kg/injection, schedule: Q01DX Z (oral), vehicle: saline 107 % of control | endpoint: mean survival time, dose: 50.0 mg/kg/injection, schedule: Q02DX009 (ip), vehicle: saline 110 % of control | endpoint: mean survival time, dose: 50.0 mg/kg/injection, schedule: Q04DX003 (ip), vehicle: saline 105 % of control | endpoint: mean survival time, dose: 60.0 mg/kg/injection, schedule: Q## X004 (ip), vehicle: water 108 % of control | endpoint: mean survival time, dose: 63.0 mg/kg/injection, schedule: Q02DX008 (ip), vehicle: water 111 % of control | endpoint: mean survival time, dose: 75.0 mg/kg/injection, schedule: Q03DX006 (ip), vehicle: saline 111 % of control | endpoint: mean survival time, dose: 80.0 mg/kg/injection, schedule: Q01DX Z (ip), vehicle: saline 102 % of control | endpoint: mean survival time, dose: 80.0 mg/kg/injection, schedule: Q## X032 (ip), vehicle: water 108 % of control | endpoint: mean survival time, dose: 88.0 mg/kg/injection, schedule: Q07DX Z (ip), vehicle: saline 113 % of control | endpoint: mean survival time, dose: 90.0 mg/kg/injection, schedule: Q## X004 (ip), vehicle: water 98 % of control | endpoint: mean survival time, dose: 100.0 mg/kg/injection, schedule: Q01DX001 (ip), vehicle: saline 104 % of control and 110 % of control | endpoint: mean survival time, dose: 100.0 mg/kg/injection, schedule: Q01DX001 (ip), vehicle: water 100 % of control | endpoint: mean survival time, dose: 100.0 mg/kg/injection, schedule: Q01DX005 (ip), vehicle: saline 116 % of control | endpoint: mean survival time, dose: 100.0 mg/kg/injection, schedule: Q01DX Z (sc), vehicle: saline 111 % of control | endpoint: mean survival time, dose: 100.0 mg/kg/injection, schedule: Q04DX003 (ip), vehicle: saline 111 % of control | endpoint: mean survival time, dose: 100.0 mg/kg/injection, schedule: Q04DX005 (ip), vehicle: saline 115 % of control | endpoint: mean survival time, dose: 100.0 mg/kg/injection, schedule: Q#A X Z (ip), vehicle: saline 105 % of control | endpoint: mean survival time, dose: 125.0 mg/kg/injection, schedule: Q01DX001 (ip), vehicle: saline 112 % of control | endpoint: mean survival time, dose: 150.0 mg/kg/injection, schedule: Q01DX001 (ip), vehicle: water 102 % of control | endpoint: mean survival time, dose: 160.0 mg/kg/injection, schedule: Q01DX009 (ip), vehicle: saline 100 % of control | endpoint: mean survival time, dose: 160.0 mg/kg/injection, schedule: Q01DX009 (oral), vehicle: saline 101 % of control | endpoint: mean survival time, dose: 160.0 mg/kg/injection, schedule: Q01DX Z (ip), vehicle: saline 110 % of control | endpoint: mean survival time, dose: 175.0 mg/kg/injection, schedule: Q07DX003 (ip), vehicle: saline 114 % of control | endpoint: mean survival time, dose: 200.0 mg/kg/injection, schedule: Q01DX001 (ip), vehicle: saline 106 % of control and 107 % of control | endpoint: mean survival time, dose: 200.0 mg/kg/injection, schedule: Q01DX017 (ip), vehicle: saline 100 % of control | endpoint: mean survival time, dose: 200.0 mg/kg/injection, schedule: Q01DX Z (im), vehicle: saline 107 % of control | endpoint: mean survival time, dose: 200.0 mg/kg/injection, schedule: Q01DX Z (ip), vehicle: carboxymethylcellulose (CMC) 94 % of control | endpoint: mean survival time, dose: 200.0 mg/kg/injection, schedule: Q01DX Z (ip), vehicle: saline 102 % of control | endpoint: mean survival time, dose: 200.0 mg/kg/injection, schedule: Q01DX Z (sc), vehicle: saline 96 % of control | endpoint: mean survival time, dose: 200.0 mg/kg/injection, schedule: Q04DX002 (ip), vehicle: water 112 % of control | endpoint: mean survival time, dose: 225.0 mg/kg/injection, schedule: Q01DX001 (ip), vehicle: water 110 % of control | endpoint: mean survival time, dose: 250.0 mg/kg/injection, schedule: Q01DX001 (ip), vehicle: saline 109 % of control | endpoint: mean survival time, dose: 250.0 mg/kg/injection, schedule: Q01DX Z (ip), vehicle: saline 95 % of control | endpoint: mean survival time, dose: 270.0 mg/kg/injection, schedule: Q01DX009 (ip), vehicle: saline 115 % of control | endpoint: mean survival time, dose: 270.0 mg/kg/injection, schedule: Q## X009 (ip), vehicle: saline 115 % of control | endpoint: mean survival time, dose: 300.0 mg/kg/injection, schedule: Q02DX010 (ip), vehicle: other 108 % of control | endpoint: mean survival time, dose: 320.0 mg/kg/injection, schedule: Q01DX009 (ip), vehicle: saline 101 % of control and 108 % of control | endpoint: mean survival time, dose: 320.0 mg/kg/injection, schedule: Q01DX009 (oral), vehicle: saline 93 % of control | endpoint: mean survival time, dose: 335.0 mg/kg/injection, schedule: Q01DX001 (ip), vehicle: saline 115 % of control | endpoint: mean survival time, dose: 350.0 mg/kg/injection, schedule: Q01DX Z (ip), vehicle: saline 104 % of control | endpoint: mean survival time, dose: 375.0 mg/kg/injection, schedule: Q04DX003 (ip), vehicle: saline 112 % of control | endpoint: mean survival time, dose: 400.0 mg/kg/injection, schedule: Q01DX001 (ip), vehicle: saline 116 % of control | endpoint: mean survival time, dose: 400.0 mg/kg/injection, schedule: Q01DX009 (ip), vehicle: saline 102 % of control | endpoint: mean survival time, dose: 400.0 mg/kg/injection, schedule: Q01DX Z (oral), vehicle: saline 105 % of control | endpoint: mean survival time, dose: 400.0 mg/kg/injection, schedule: Q02DX009 (ip), vehicle: saline 100 % of control | endpoint: mean survival time, dose: 450.0 mg/kg/injection, schedule: Q02DX010 (ip), vehicle: carboxymethylcellulose (CMC) 113 % of control | endpoint: mean survival time, dose: 450.0 mg/kg/injection, schedule: Q02DX010 (ip), vehicle: other 92 % of control | endpoint: mean survival time, dose: 500.0 mg/kg/injection, schedule: Q04DX003 (ip), vehicle: saline 105 % of control | endpoint: mean survival time, dose: 640.0 mg/kg/injection, schedule: Q01DX009 (ip), vehicle: saline 95 % of control | endpoint: mean survival time, dose: 640.0 mg/kg/injection, schedule: Q01DX009 (oral), vehicle: saline 96 % of control | endpoint: mean survival time, dose: 700.0 mg/kg/injection, schedule: Q07DX003 (ip), vehicle: saline 111 % of control | endpoint: mean survival time, dose: 714.0 mg/kg/injection, schedule: Q02DX008 (ip), vehicle: saline 113 % of control | endpoint: mean survival time, dose: 750.0 mg/kg/injection, schedule: Q01DX001 (ip), vehicle: saline 112 % of control | endpoint: mean survival time, dose: 800.0 mg/kg/injection, schedule: Q01DX001 (ip), vehicle: water 108 % of control | endpoint: mean survival time, dose: 800.0 mg/kg/injection, schedule: Q01DX Z (oral), vehicle: saline 108 % of control | endpoint: mean survival time, dose: 800.0 mg/kg/injection, schedule: Q04DX003 (ip), vehicle: saline 113 % of control | endpoint: mean survival time, dose: 800.0 mg/kg/injection, schedule: Q04DX005 (ip), vehicle: saline 114 % of control | endpoint: mean survival time, dose: 1071.0 mg/kg/injection, schedule: Q02DX008 (ip), vehicle: saline 104 % of control | endpoint: mean survival time, dose: 1344.0 mg/kg/injection, schedule: Q## X032 (ip), vehicle: water 107 % of control | endpoint: median survival time, dose: 160.0 mg/kg/injection, schedule: Q01DX009 (ip), vehicle: saline 100 % of control | endpoint: median survival time, dose: 320.0 mg/kg/injection, schedule: Q01DX009 (ip), vehicle: saline 106 % of control
